Measurements as given in US11814680B2, “Biomarkers for detecting senescent cells” (Universität für Bodenkultur Wien, priority 2017, dated 2023).
“Also recorded” adds a separate entry of the source. Marks after values point to notes of the source that are not given here.

Columns and labels:
Assay type in all cases: in vivo, mouse
p16-3MR mice [1] = test: Next generation sequencing of circulating miRNAs in serum after induction (dox) and removal (GCV) of senescent cells; conditions: NGS; for log fold change: p16-3MR mice
Description: p16-3MR (Demaria et al, 2014, Developmental Cell 31:722-733) mice were bred in house and maintained in the AALAC-accredited Buck Institute for Research on Aging (Novato, Calif.) animal facility. 10 to 12-week-old p16-3MR male mice were used for experiments. Mice were divided in 4 groups and each group consisted of 3 animals. In group A, control mice were injected with PBS. In group B, mice were treated with Ganciclovir (GCV) (Sigma-Aldrich) dissolved in PBS for 5 consecutive days. In group C, mice were treated with one dose of Doxorubicine hydrochloride (Sigma-Aldrich) dissolved in PBS. In group D, mice were first treated with Doxorubicine and then treated 10 days later with GCV. Mice were intraperitoneally injected with one dose of 10 mg/kg of Doxorubicine hydrochloride, and GCV was administered daily by intraperitoneal injections for 5 consecutive days at concentration of 25 mg/kg in PBS. 4 days after the last GCV dose, animals were euthanized with CO2 and blood was withdrawn immediately. Blood was then incubated for 30 min at room temperature and centrifuged at 3400×g for 10 min. Serum was carefully collected in a sterile tube without disturbing the cell pellet and stored at −80° C. for further experiments.
Total RNA extraction was performed from 200 μl of serum using the Qiagen miRNeasy™ extraction kit (Qiagen, Germany). RNA yield was quality checked for homogenous extraction efficiency and hemolysis on the basis qPCR amplification of spiked-in as well as hemolysis-responsive RNAs (Blondal et al). In total 2 μl total RNA were used for library preparation using the CleanTag library preparation protocol (Trilink Biotechnologies, USA), which uses chemically modified adapters to prevent adapter self-ligation. Library quality and yield was controlled using Bioanalyzer DNA-1000 chips. Due to the high purity, libraries were not purified prior to sequencing on an ILLUMINA™ NextSeq 500 sequencing system with 50 bp single-end reads.
Next-generation sequencing was performed at Exiqon (Denmark). Raw reads were quality filtered for a Q-score of 30 or higher. Adapter sequences were trimmed and the remaining reads were mapped against the mouse genome, miRBase, non-coding RNA databases and classified as either microRNAs, small RNAs, genome mapping RNAs or outmapped RNA sequences. Read counts were added for all microRNA isoforms (isomiRs) and normalized by dividing the microRNA read count by the total number of mapped reads and multiplying by 1 million (Tags Per Million). Tags per millions were used for data mining (PCA and hierarchical clustering) using the web-tool clustvis (Metsalu and Vilo 2015).
For differential expression analysis, the EdgeR statistical software package was used. For normalization, the trimmed mean of M-values method was used based on log-fold and absolute gene wise changes in expression levels between samples (TMM normalization). […] Additionally, the normalization step offsets under-sampling effects (due to highly expressed microRNAs dominating the read set) by identifying scaling factors that minimize log-fold changes between samples across the majority of microRNAs.
For exploratory data analysis we applied principal component analysis (PCA) to the dataset of 50 most variable microRNAs according to the coefficient of variation. The PCA plot clearly indicates an effect of […] (dox) treatment on circulating microRNA levels in p16-3MR mice compared to the PBS treated control animals (FIG. 2). […] Analysis of differentially circulating miRNAs was focused on changes between dox treated versus control (PBS) to identify those miRNAs that are modulated by induction of senescence, as well as dox-GCV vs dox, in order to identify miRNAs that change after removal of senescent cells. A p-value threshold of <0.05 without correction for multiple testing was used. […] GCV-treated animals are supposed to have a reduced number of senescent cells compared to PBS due to forced apoptosis. […]

p16-3MR mice [2] = test: RT-qPCR verification of serum circulating microRNA changes, one-way ANOVA
Description: p16-3MR (Demaria et al, 2014, Developmental Cell 31:722-733) mice were bred in house and maintained in the AALAC-accredited Buck Institute for Research on Aging (Novato, Calif.) animal facility. 10 to 12-week-old p16-3MR […] mice were used for experiments. Mice were divided in 4 groups and each group consisted of 8 animals, 5 female, and 3 male, respectively. In group A, control mice were injected with PBS. In group B, mice were treated with Ganciclovir (GCV) (Sigma-Aldrich) dissolved in PBS for 5 consecutive days. In group C, mice were treated with one dose of Doxorubicine hydrochloride (Sigma-Aldrich) dissolved in PBS. In group D, mice were first treated with Doxorubicine and then treated 10 days later with GCV. Mice were intraperitoneally injected with one dose of 10 mg/kg of Doxorubicine hydrochloride, and GCV was administered daily by intraperitoneal injections for 5 consecutive days at concentration of 25 mg/kg in PBS. 4 days after the last GCV dose, animals were euthanized with CO2 and blood was withdrawn immediately. Blood was then incubated for 30 min at room temperature and centrifuged at 3400×g for 10 min. Serum was carefully collected in a sterile tube without disturbing the cell pellet and stored at −80° C. for further experiments.
Total RNA extraction was performed from 200 μl of serum using the Qiagen miRNeasy extraction kit (Qiagen, Germany). RNA yield was quality checked for homogenous extraction efficiency and hemolysis on the basis qPCR amplification of spiked-in as well as hemolysis-responsive RNAs (Blondal et al). In total 2 μl total RNA were used for reverse transcription using the Exiqon Universal RT kit II (Exiqon, Denmark). The obtained cDNA samples were pre-diluted 1:40 and subsequently mixed with SYBR Green® Mix (Exiqon, Denmark) to achieve a 1:100 dilution. The mix was distributed to primer-coated 384-well plates containing dried primer pairs for 96 selected microRNA or quality control assays. QPCR amplification was performed on a Roche LightCycler 480 II, using the manufacturer's recommendation for annealing, extension and denaturation.
Raw Cq-values were computed using the 2nd derivative method. Melting curves were checked for peaks to ensure specificity of the amplification reactions. Cq-values were subsequently normalized using Spike-In controls as references, to reduce technical noise in the data.
(§1) Statistical analysis was performed using Medcalc (version 18.2.1). Normal distribution was assessed using D'Agostino-Pearson test, where normality was accepted at p>0.05. One-way ANOVA together together with Student-Newman-Keuls test for all pairwise comparisons (post-hoc tests) was used to identify significant changes between groups (p<0.05). To assess the discriminatory power of individual microRNAs, receiver operating characteristic (ROC) analysis was applied. ROC curves were plotted using sensitivity (y-axis) and 1-specificity (x-axis) and the area under the ROC curve (AUC) was calculated. MicroRNAs with AUC-values of >0.7 were considered as good discriminators/biomarkers. MicroRNAs with AUC-values >0.8 were considered very good discriminators/biomarkers.

p16-3MR mice [3] = test: ROC analysis of discriminatory power of circulating microRNAs; conditions: serum, RT-qPCR, symbol after the number = significance
Description: as §1
In order to assess the diagnostic power of circulating microRNAs for the exposure with senescence inducing substances (DOX) as well as the efficacy of senolytic treatment, ROC analysis was performed and the area-under-the-curve (AUC) was calculated. […] Table 23 below summarizes AUC values as well as 95% confidence intervals for 24 selected circulating microRNAs.

miR-34a-5p: circulating microRNA biomarker, SEQ ID No. 1 (UGGCAGUGUCUUAGCUGGUUGU; expressed or natural sequence; listed as Homo sapiens)
serum level after rescue with dox+GCV (removal of senescent cells) (p16-3MR mice [1]; in words): decreased
serum level in dox-treated animals compared to PBS controls (p16-3MR mice [1]; in words): higher; also recorded: increased
serum level after rescue with dox+GCV (removal of senescent cells) (p16-3MR mice [1]; in words, listed as miR-34a): significant decline
avg TPM GCV (p16-3MR mice [1]; serum miRNA, comparison group of Table 17, printed GCV): 8.00 TPM
avg TPM dox + GCV (p16-3MR mice [1]; serum miRNA, dox + GCV treated p16-3MR mice): 2.33 TPM
log fold change (p16-3MR mice [1]; serum miRNA, dox + gcv vs gcv (so in the source)): −1.34
log fold change (p16-3MR mice [1]; serum miRNA, dox vs pbs): 1.13
avg TPM dox (p16-3MR mice [1]; serum miRNA, dox-treated p16-3MR mice): 8.00 TPM
regulation in serum after exposure to DOX compared to PBS (p16-3MR mice [2]; independent of gender, in words): significantly (up- or down-regulated)
One-way ANOVA Senolytic Treatment (DOX/GCV) (p16-3MR mice [2]; serum, DOX/GCV compared to DOX): ○
One-way ANOVA Senescence (DOX vs PBS) (p16-3MR mice [2]; serum, n=8 per group, male and female mice): * (significant p < 0.05)
ROC Analysis AUC Senescence (p16-3MR mice [3]; DOX vs PBS): 1.000*
ROC Analysis AUC Senolytic Treatment (p16-3MR mice [3]; DOX/GCV vs DOX): 0.672°
